Experimental data from the NIST ThermoML archive (doi:10.1016/j.fluid.2008.09.004).
Numbers after ± are expanded uncertainties.

Tests used:
[1] = 101.33 kPa, Liquid; for mass density: Vibrating tube method; for speed of sound: Sing-around technique in a fixed-path interferometer
[2] = molar heat capacity at constant pressure; details: 101.33 kPa, Liquid, Small sample (50 mg) DSC
[3] = excess molar enthalpy (molar enthalpy of mixing); xn = mol fraction of the nth substance listed; details: 303.15 K, 101 kPa, Liquid, Calvet calorimetry

For CCCCn1cc[n+](C)c1.COS(=O)(=O)[O-] [1-butyl-3-methylimidazolium methyl sulfate], the mass density ([1]; 293.15 K) was 1210.7 ± 0.4 kg/m3, the mass density ([1]; 298.15 K) was 1207.4 ± 0.4 kg/m3 and the mass density ([1]; 303.15 K) was 1204.1 ± 0.4 kg/m3. For the same compound, the mass density ([1]; 308.15 K) was 1200.8 ± 0.4 kg/m3, the mass density ([1]; 313.15 K) was 1197.5 ± 0.4 kg/m3 and the mass density ([1]; 318.15 K) was 1194.2 ± 0.4 kg/m3. For the same compound, the “molar heat capacity at constant pressure” value ([2]; 293.15 K) was 413.7 ± 6.4 J/K/mol, the “molar heat capacity at constant pressure” value ([2]; 298.15 K) was 416.2 ± 6.4 J/K/mol and the “molar heat capacity at constant pressure” value ([2]; 303.15 K) was 418.5 ± 6.5 J/K/mol. For the same compound, the “molar heat capacity at constant pressure” value ([2]; 308.15 K) was 420.9 ± 6.5 J/K/mol, the “molar heat capacity at constant pressure” value ([2]; 313.15 K) was 423.3 ± 6.6 J/K/mol and the “molar heat capacity at constant pressure” value ([2]; 318.15 K) was 425.6 ± 6.6 J/K/mol.
CCCCn1cc[n+](C)c1.F[B-](F)(F)F [1-butyl-3-methylimidazolium tetrafluoroborate] showed a mass density ([1]; 293.15 K) of 1207.6 ± 0.4 kg/m3, a mass density ([1]; 298.15 K) of 1204.1 ± 0.4 kg/m3 and a mass density ([1]; 303.15 K) of 1200.5 ± 0.4 kg/m3. The mass density ([1]; 308.15 K) was 1197 ± 0.4 kg/m3, the mass density ([1]; 313.15 K) was 1193.4 ± 0.4 kg/m3 and the mass density ([1]; 318.15 K) was 1189.9 ± 0.4 kg/m3. For the same compound, the “molar heat capacity at constant pressure” value ([2]; 293.15 K) was 359.8 ± 5.6 J/K/mol, the “molar heat capacity at constant pressure” value ([2]; 298.15 K) was 363.1 ± 5.6 J/K/mol and the “molar heat capacity at constant pressure” value ([2]; 303.15 K) was 366.1 ± 5.7 J/K/mol. For the same compound, the “molar heat capacity at constant pressure” value ([2]; 308.15 K) was 368.7 ± 5.7 J/K/mol, the “molar heat capacity at constant pressure” value ([2]; 313.15 K) was 371 ± 5.7 J/K/mol and the “molar heat capacity at constant pressure” value ([2]; 318.15 K) was 372.9 ± 5.8 J/K/mol.
In the case of CCCCn1cc[n+](C)c1.O=S(=O)([O-])C(F)(F)F [1-butyl-3-methylimidazolium trifluoromethanesulfonate], the speed of sound ([1]; 293.15 K) is reported as 1403.4 ± 1.3 m/s, the mass density ([1]; 293.15 K) is reported as 1301.6 ± 0.5 kg/m3 and the speed of sound ([1]; 298.15 K) is reported as 1392.1 ± 1.3 m/s. For the same compound, the mass density ([1]; 298.15 K) was 1297.6 ± 0.5 kg/m3, the speed of sound ([1]; 303.15 K) was 1380.9 ± 1.3 m/s and the mass density ([1]; 303.15 K) was 1293.7 ± 0.5 kg/m3. For the same compound, the speed of sound ([1]; 308.15 K) was 1369.8 ± 1.3 m/s, the mass density ([1]; 308.15 K) was 1289.7 ± 0.5 kg/m3 and the speed of sound ([1]; 313.15 K) was 1358.8 ± 1.3 m/s. The mass density ([1]; 313.15 K) was 1285.8 ± 0.5 kg/m3, the speed of sound ([1]; 318.15 K) was 1348.1 ± 1.3 m/s and the mass density ([1]; 318.15 K) was 1281.9 ± 0.5 kg/m3. For the same compound, the “molar heat capacity at constant pressure” value ([2]; 293.15 K) was 421.6 ± 6.5 J/K/mol, the “molar heat capacity at constant pressure” value ([2]; 298.15 K) was 424.1 ± 6.6 J/K/mol and the “molar heat capacity at constant pressure” value ([2]; 303.15 K) was 426.7 ± 6.6 J/K/mol. The “molar heat capacity at constant pressure” value ([2]; 308.15 K) was 429.5 ± 6.7 J/K/mol, the “molar heat capacity at constant pressure” value ([2]; 313.15 K) was 432.4 ± 6.7 J/K/mol and the “molar heat capacity at constant pressure” value ([2]; 318.15 K) was 435.5 ± 6.7 J/K/mol.
CCCC[n+]1cccc(C)c1.F[B-](F)(F)F [1-butyl-3-methylpyridinium tetrafluoroborate] gave a speed of sound ([1]; 293.15 K) of 1599.8 ± 1.4 m/s, a speed of sound ([1]; 298.15 K) of 1587 ± 1.4 m/s and a speed of sound ([1]; 303.15 K) of 1574.8 ± 1.4 m/s. For the same compound, the speed of sound ([1]; 308.15 K) was 1562.6 ± 1.4 m/s, the speed of sound ([1]; 313.15 K) was 1550.7 ± 1.4 m/s and the speed of sound ([1]; 318.15 K) was 1538.9 ± 1.4 m/s.
Compound CCCC[n+]1cccc(C)c1.F[B-](F)(F)F [1-butyl-3-methylpyridinium tetrafluoroborate] + CCO has an excess molar enthalpy ([3]; x1 = 0.0306) of 0.132 ± 0.0108 kcal/mol, an excess molar enthalpy ([3]; x1 = 0.1031) of 0.324 ± 0.0263 kcal/mol and an excess molar enthalpy ([3]; x1 = 0.1976) of 0.483 ± 0.0382 kcal/mol. It also gave an excess molar enthalpy ([3]; x1 = 0.3036) of 0.588 ± 0.0478 kcal/mol, an excess molar enthalpy ([3]; x1 = 0.3966) of 0.621 ± 0.0502 kcal/mol and an excess molar enthalpy ([3]; x1 = 0.5083) of 0.596 ± 0.0478 kcal/mol. It also gave an excess molar enthalpy ([3]; x1 = 0.6001) of 0.535 ± 0.043 kcal/mol, an excess molar enthalpy ([3]; x1 = 0.692) of 0.45 ± 0.0359 kcal/mol and an excess molar enthalpy ([3]; x1 = 0.8061) of 0.301 ± 0.0239 kcal/mol. For the same compound, the excess molar enthalpy ([3]; x1 = 0.8847) was 0.187 ± 0.0151 kcal/mol.
CCOS(=O)(=O)[O-].CCn1cc[n+](C)c1 [1-ethyl-3-methylimidazolium ethyl sulfate] gave a mass density ([1]; 293.15 K) of 1240.6 ± 0.4 kg/m3, a mass density ([1]; 298.15 K) of 1237.2 ± 0.4 kg/m3 and a mass density ([1]; 303.15 K) of 1233.8 ± 0.4 kg/m3. The mass density ([1]; 308.15 K) was 1230.4 ± 0.4 kg/m3, the mass density ([1]; 313.15 K) was 1227 ± 0.4 kg/m3 and the mass density ([1]; 318.15 K) was 1223.7 ± 0.4 kg/m3. The “molar heat capacity at constant pressure” value ([2]; 293.15 K) was 392.2 ± 6.1 J/K/mol, the “molar heat capacity at constant pressure” value ([2]; 298.15 K) was 394.4 ± 6.1 J/K/mol and the “molar heat capacity at constant pressure” value ([2]; 303.15 K) was 396.8 ± 6.1 J/K/mol. For the same compound, the “molar heat capacity at constant pressure” value ([2]; 308.15 K) was 399.3 ± 6.2 J/K/mol, the “molar heat capacity at constant pressure” value ([2]; 313.15 K) was 402 ± 6.2 J/K/mol and the “molar heat capacity at constant pressure” value ([2]; 318.15 K) was 404.9 ± 6.3 J/K/mol.
Work on CCn1cc[n+](C)c1.O=S(=O)([O-])C(F)(F)F [1-ethyl-3-methylimidazolium trifluoromethanesulfonate] yielded a mass density ([1]; 293.15 K) of 1389.5 ± 0.6 kg/m3, a mass density ([1]; 298.15 K) of 1385.3 ± 0.6 kg/m3 and a mass density ([1]; 303.15 K) of 1381.1 ± 0.6 kg/m3. For the same compound, the mass density ([1]; 308.15 K) was 1376.9 ± 0.6 kg/m3, the mass density ([1]; 313.15 K) was 1372.7 ± 0.6 kg/m3 and the mass density ([1]; 318.15 K) was 1368.6 ± 0.6 kg/m3. The “molar heat capacity at constant pressure” value ([2]; 293.15 K) was 361.1 ± 5.6 J/K/mol, the “molar heat capacity at constant pressure” value ([2]; 298.15 K) was 363.2 ± 5.6 J/K/mol and the “molar heat capacity at constant pressure” value ([2]; 303.15 K) was 365.3 ± 5.7 J/K/mol. The “molar heat capacity at constant pressure” value ([2]; 308.15 K) was 367.4 ± 5.7 J/K/mol, the “molar heat capacity at constant pressure” value ([2]; 313.15 K) was 369.6 ± 5.7 J/K/mol and the “molar heat capacity at constant pressure” value ([2]; 318.15 K) was 371.8 ± 5.8 J/K/mol.
CCCCCCn1cc[n+](C)c1.F[B-](F)(F)F [1-hexyl-3-methylimidazolium tetrafluoroborate] gave a speed of sound ([1]; 293.15 K) of 1532.7 ± 1.4 m/s, a mass density ([1]; 293.15 K) of 1148.8 ± 0.4 kg/m3 and a speed of sound ([1]; 298.15 K) of 1519.5 ± 1.4 m/s. For the same compound, the mass density ([1]; 298.15 K) was 1145.3 ± 0.4 kg/m3, the speed of sound ([1]; 303.15 K) was 1506.9 ± 1.4 m/s and the mass density ([1]; 303.15 K) was 1141.8 ± 0.4 kg/m3. For the same compound, the speed of sound ([1]; 308.15 K) was 1494.5 ± 1.4 m/s, the mass density ([1]; 308.15 K) was 1138.4 ± 0.4 kg/m3 and the speed of sound ([1]; 313.15 K) was 1482.3 ± 1.4 m/s. It also gave a mass density ([1]; 313.15 K) of 1135 ± 0.4 kg/m3, a speed of sound ([1]; 318.15 K) of 1470.5 ± 1.4 m/s and a mass density ([1]; 318.15 K) of 1131.6 ± 0.4 kg/m3. For the same compound, the “molar heat capacity at constant pressure” value ([2]; 293.15 K) was 425.1 ± 6.6 J/K/mol, the “molar heat capacity at constant pressure” value ([2]; 298.15 K) was 427.8 ± 6.6 J/K/mol and the “molar heat capacity at constant pressure” value ([2]; 303.15 K) was 430.4 ± 6.7 J/K/mol. For the same compound, the “molar heat capacity at constant pressure” value ([2]; 308.15 K) was 433 ± 6.7 J/K/mol, the “molar heat capacity at constant pressure” value ([2]; 313.15 K) was 435.5 ± 6.7 J/K/mol and the “molar heat capacity at constant pressure” value ([2]; 318.15 K) was 438.1 ± 6.8 J/K/mol.
In the case of CCO [ethanol], the speed of sound ([1]; 293.15 K) is reported as 1159.5 ± 0.8 m/s, the mass density ([1]; 293.15 K) is reported as 789.6 ± 0.2 kg/m3 and the speed of sound ([1]; 298.15 K) is reported as 1142.5 ± 0.8 m/s. It also gave a mass density ([1]; 298.15 K) of 785.3 ± 0.2 kg/m3, a speed of sound ([1]; 303.15 K) of 1125.5 ± 0.8 m/s and a mass density ([1]; 303.15 K) of 781 ± 0.2 kg/m3. It also gave a speed of sound ([1]; 308.15 K) of 1108.6 ± 0.8 m/s, a mass density ([1]; 308.15 K) of 776.7 ± 0.2 kg/m3 and a speed of sound ([1]; 313.15 K) of 1091.8 ± 0.8 m/s. It also gave a mass density ([1]; 313.15 K) of 772.3 ± 0.2 kg/m3, a speed of sound ([1]; 318.15 K) of 1075.1 ± 0.7 m/s and a mass density ([1]; 318.15 K) of 767.8 ± 0.2 kg/m3. For the same compound, the “molar heat capacity at constant pressure” value ([2]; 293.15 K) was 111.3 ± 1.7 J/K/mol, the “molar heat capacity at constant pressure” value ([2]; 298.15 K) was 113.3 ± 1.8 J/K/mol and the “molar heat capacity at constant pressure” value ([2]; 303.15 K) was 115.3 ± 1.8 J/K/mol. For the same compound, the “molar heat capacity at constant pressure” value ([2]; 308.15 K) was 117.5 ± 1.8 J/K/mol, the “molar heat capacity at constant pressure” value ([2]; 313.15 K) was 119.7 ± 1.9 J/K/mol and the “molar heat capacity at constant pressure” value ([2]; 318.15 K) was 122.1 ± 1.9 J/K/mol.
